“Also recorded” adds a separate entry of the source.
Legend:
cannabinoid receptors = experiment: GTPγS binding in end stage spinal cord homogenates from G93A-SOD1 mice, separated by gender; type: biochemical, mouse; conditions: for 2-AG stimulated G-protein activation remaining on co-incubation with CB2 ligand / HU-210 stimulated G-protein activation remaining on co-incubation with CB2 ligand: ligand 1 μM
Method: (§1) [^35S]GTPγS binding assays were performed as described previously (Prather et al. 2000a) in a buffer containing 20 mM Hepes, 100 mM NaCl, and 10 mM MgCl2 at pH 7.4. Each binding reaction contained 10 μg of spinal cord membrane protein, the presence or absence of cannabinoid ligands (see following), plus 0.1 nM [^35S]GTPγS (1250 Ci/mmol, Perkin Elmer Life and Analytical Sciences) and […] of GDP to suppress basal G-protein activation. Reactions were incubated for 2 hrs at 30 °C. Non-specific binding was defined by binding observed in the presence of 10 μM of non-radioactive GTPγS. The reaction was terminated by rapid vacuum filtration through glass fiber filters followed by two washes with ice-cold assay buffer. 4 mL of scintiverse® (Fisher Scientific) was added to the filters and radioactivity quantified by scintillation counting.
Harvested spinal cords from the vehicle treated control groups at the end-stage of their disease were separated by gender and used to conduct GTP7S binding experiments, which measure the capability of a ligand to promote or suppress G-protein activation.
It was next determined if the selective CB2 ligands antagonize G-protein activation produced by an endocannabinoid such as 2-AG as well.

CB1 and CB2 receptors = experiment: [35S]GTPγS binding with selective agonists in mouse spinal cord membranes; type: biochemical; conditions: data not shown
Method: as §1
We initially attempted to compare CB 1 and CB2 receptor activation of G-proteins between WT-OE and G93A spinal cord membranes by conducting [^35S]GTPγS binding assays in the presence of selective agonists.

CB2 receptors = CB2 receptors (Homo sapiens, UniProt P34972); conditions: cited from earlier work
CB1 receptors = conditions: cited from earlier work; for Ki: literature value, read-out: Ki at CB1 receptors
[1] = Water solubility and dissolution in vehicles; conditions: for stable dissolution in tested vehicles: ethanol/water, glycerol, polyethylene glycol, high purity olive oil tested
G93A-SOD1 mice [2] = experiment: Survival of G93A mice, daily i.p. treatment initiated at symptom onset; type: in vivo, mouse; conditions: for survival improvement versus vehicle, females: female G93A mice; for survival improvement versus vehicle, females / survival improvement versus vehicle, males: 3 mg/kg for AM-1241 and AM630, JTE-907 dose not given; for survival improvement versus vehicle, males: male G93A mice
Description: Hemizygous transgenic male mice with the G93A mutation of the human SOD1 gene (G1H/1) mutation (B6SJL-TgN (SOD1-G93A) 1 Gur) were obtained from Jackson Laboratories and were bred locally with female B6SJL mice (Jackson Laboratory), according to the protocol obtained from the vendor. To decrease the inherent variability in disease onset and survival with these mice, littermate transgenic males (rather than random males from several different litters) were selected to sire subsequent generations of mice.
Determination of symptom onset, randomization and drug treatment of G93A mice. Symptom onset was assessed by blinded observation of changes in hind limb gait; these changes are related to the mouse's inability to support its weight on its hind limbs. At onset, mice initially place their weight on the toes and then quickly fall to full foot placement (as opposed to healthy mice which walk and run on the hind toes); this “toe-to-heel” walking pattern produces an asymmetric gait between hind and fore limbs and a characteristic “wobbling” gait. Mouse groups were randomized based on symptom onset and alternately placed in control and treated groups, e.g., the first mouse to develop hind limb weakness was placed in the control group, the second was injected with test compound and placed in the treatment group, and so on. […] By definition, the onset administration paradigm employed was focused on what we term the “survival interval”—namely the time from onset to end-stage sacrifice.
Mice were sacrificed when any of the following criteria were met: (1) inability to right themselves within 30 seconds when placed on their sides; (2) inability to eat or drink, or move toward food and water placed in low-rimmed dishes on cage floor; (3) loss of more than 10% of total body weight in 24 hours; (4) gross loss of grooming behavior; or (5) labored breathing. Criteria for death were confirmed by a second investigator who is blinded to the group identity of each mouse. The age of symptom onset was subtracted from the age at death for each mouse, and a mean survival interval was calculated for each group. By calculating the ratio of the survival interval of treated groups to the survival interval of untreated littermate controls, a X-fold increase in survival was readily determined.
The effect of chronic administration of cannabinoids on the survival of G93A mice was next examined (FIG. 4). […] The number of days between symptom onset and animal sacrifice was measured (e.g., survival interval). In humans, this is analogous to the time between diagnosis of ALS and death, ranging from 2-5 years.

G93A-SOD1 mice [3] = experiment: Motor function test (clinging to perpendicular wire mesh screen for 60 seconds) in G93A mice; type: in vivo, mouse; conditions: for improvement in motor function versus vehicle, females: female G93A mice; for improvement in motor function versus vehicle, females / improvement in motor function versus vehicle, males: time to loss of ability to cling 60 seconds; for interval between mean loss of motor function and death, females: female mice, vehicle 19.0 days; for improvement in motor function versus vehicle, males: male G93A mice; for interval between mean loss of motor function and death, males: male mice, vehicle 20.5 days
Method: Beginning on the first day of observing symptoms, mice were tested for motor function biweekly until sacrifice. Motor function testing was initiated by gently placing animals on a horizontal wire mesh screen. The screen was slowly rotated to be perpendicular to the ground (90°). The duration that mice were able to hang onto the perpendicular wire mesh up to a maximum of 120 seconds was recorded. Because vehicle treated mice on average lost the ability to cling to the wire mesh for 60 seconds in the middle of their survival curve, this “all or none” response was utilized to compare motor function across all treatment groups. Kaplan-Meier time-to-event statistics were employed to analyze the data. The event was defined as the number of days after symptom onset that each individual animal was no longer able to cling to the wire mesh screen for 60 seconds.
Testing twice a week for the duration of the study provided a quantifiable decline during disease progression. Mice were placed on a horizontal wire mesh screen that was gently inverted to 90°. Kaplan-Meier time-to-event curves were used to analyze the data. The event was defined as the day each animal was no longer able to cling to the perpendicular screen for 60 seconds. […] The disparity between male and female motor function was paralleled by the interval between survival for the genders. Male mice survived an average of 39.6±2.0 (FIG. 6a) days past the onset of symptoms, while females lived 9 days longer than males (p<0.0018*, FIG. 6b). For males and females, loss of motor function preceded death by 20.5 (p<0.0002***) and 19.0 days (p<0.0028**), respectively.

CB1/CB2 receptors [4] = experiment: [35S]GTPγS binding, selective antagonism of HU-210, WT-OE spinal cord membranes; type: biochemical, mouse
CB1/CB2 receptors [5] = experiment: [35S]GTPγS binding, selective antagonism of HU-210, G93A spinal cord membranes; type: biochemical, mouse
[6] = female homogenates, HU-210 100 nM
[7] = male homogenates, HU-210 100 nM
[8] = G93A mice, i.p. daily from onset, 3.0 mg/kg
[9] = daily injections initiated at symptom onset
[10] = WT-OE spinal cord membranes, HU-210 100 nM, antagonist 3 μM

CB2 receptors, sequence (P34972 whole entry): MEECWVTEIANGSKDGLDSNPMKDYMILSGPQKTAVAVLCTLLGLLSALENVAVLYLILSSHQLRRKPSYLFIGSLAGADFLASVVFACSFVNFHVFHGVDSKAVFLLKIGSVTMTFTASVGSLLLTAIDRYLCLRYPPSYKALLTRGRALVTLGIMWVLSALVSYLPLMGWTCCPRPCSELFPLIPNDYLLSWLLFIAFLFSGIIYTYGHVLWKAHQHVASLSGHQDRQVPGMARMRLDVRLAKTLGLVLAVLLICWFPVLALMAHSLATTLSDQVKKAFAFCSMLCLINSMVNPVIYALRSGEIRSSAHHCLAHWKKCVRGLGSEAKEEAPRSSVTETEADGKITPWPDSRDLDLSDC

## CCCCCC=CCC=CCC=CCC=CCCCC(=O)OC(CO)CO [2-AG, (5Z,8Z,11Z, 14Z)-5,8,11,14-Eicosatetraenoic acid, 2-hydroxy-1-(hydroxymethyl) ethyl ester]
Cannabinoid receptors; female spinal cord homogenate, 2-AG 3 μM
  [35S]GTPγS binding to G-proteins produced by agonist: 29.93±3.3 fmole/mg protein
Cannabinoid receptors; female transgenic spinal cord
  Emax of G-protein activation: 17.81±1.89
Cannabinoid receptors; male spinal cord homogenate, 2-AG 3 μM
  [35S]GTPγS binding to G-proteins produced by agonist: 31.30±1.7 fmole/mg protein
Cannabinoid receptors; male transgenic spinal cord
  Emax of G-protein activation: 23.21±5.82

## CCCCC/C=C\C/C=C\C/C=C\C/C=C\CCCC(=O)NCCCl [ACEA, (all Z)-N-(2-cycloethyl)-5,8,11,14-eicosatetraenamide]
CB1 and CB2 receptors
  G-protein activation by selective agonist: failed attempts to demonstrate consistent, measurable G-protein activation; also recorded: unable to demonstrate consistent, measurable G-protein activation

## Cc1c(C(=O)NN2CCCCC2)nn(-c2ccc(Cl)cc2Cl)c1-c1ccc(I)cc1 [AM-251, N-(Piperidin-1-yl)-5-(4-iodophenyl)-1-(2,4-dichlorophenyl)-4-methyl-1H-pyrazole-3-carboxamide]
CB2 receptors; Gatley et al. 1997
  affinity at CB2 receptors weaker than at CB1: over 300 fold
CB1 receptors
  Ki: ~7 nM

## COc1ccc(C(=O)c2c(C)n(CCN3CCOCC3)c3cc(I)ccc23)cc1 [AM-630]
Cannabinoid receptors; female homogenate, 2-AG 3 μM
  2-AG stimulated G-protein activation remaining on co-incubation with CB2 ligand: 8.49±3.7 fmole/mg protein
Cannabinoid receptors; [6]
  HU-210 stimulated G-protein activation remaining on co-incubation with CB2 ligand: 17.76±3.3 fmole/mg protein
Cannabinoid receptors; male homogenate, 2-AG 3 μM
  2-AG stimulated G-protein activation remaining on co-incubation with CB2 ligand: 6.66±3.9 fmole/mg protein
Cannabinoid receptors; [7]
  HU-210 stimulated G-protein activation remaining on co-incubation with CB2 ligand: 21.02±5.6 fmole/mg protein
CB2 receptors; literature value, read-out: Ki at CB2 receptors
  Ki: ~20 nM
[1]
  water solubility: very poor water solubility
  stable dissolution in tested vehicles: achieved only with olive oil
CB1 receptors; Hosohata et al. 1997
  affinity for CB1 receptors less than for CB2: more than 165 fold
G93A-SOD1 mice [2]; [8]
  Survival Interval Ratio (SIR): 2.30
  Total Life-Span Ratio (TLR): 1.27
G93A-SOD1 mice [2]; G93A-SOD1 mice
  survival compared with AM-1241 treated mice: survived twice as long as those mice treated with AM-1241
G93A-SOD1 mice [2]; [9]
  extension of total life-span versus controls: 27%
  living longer after symptom onset than controls (survival interval increase): 130%
G93A-SOD1 mice [2]
  survival improvement versus vehicle, females: 8%
  survival improvement versus vehicle, males: 27%
G93A-SOD1 mice [2]; treatment initiated at symptom onset
  effect on survival of G93A-SOD1 mice: pronounced increase in survival
G93A-SOD1 mice [3]
  improvement in motor function versus vehicle, females: 48%
  interval between mean loss of motor function and death, females: 8.7 days
  improvement in motor function versus vehicle, males: 64%
  interval between mean loss of motor function and death, males: 18.9 days

## CCCCCCC(C)(C)c1cc(O)c2c(c1)OC(C)(C)[C@@H]1CC=C(CO)C[C@@H]21 [HU-210, (−)-11-Hydroxy-delta(8)-tetrahydrocannabinol-dimethylheptyl]
CB1/CB2 receptors [4]; WT-OE spinal cord membranes, HU-210 100 nM
  [35S]GTPγS binding to G-proteins produced by agonist: 30.7±6.2 fmole/mg protein
Cannabinoid receptors; female spinal cord homogenates, HU-210 100 nM
  [35S]GTPγS binding to G-proteins produced by agonist: 40.59±8.5 fmole/mg protein
Cannabinoid receptors; male spinal cord homogenates, HU-210 100 nM
  [35S]GTPγS binding to G-proteins produced by agonist: 35.51±5.6 fmole/mg protein
CB1 receptors
  Ki: ~0.5 nM
CB1/CB2 receptors [5]; G93A spinal cord membranes, HU-210 100 nM
  [35S]GTPγS binding to G-proteins produced by agonist: 57.4±4.4 fmole/mg protein

## CCCCCOc1c(OC)ccc2cc(C(=O)NCc3ccc4c(c3)OCO4)c(=O)[nH]c12 [JTE-907]
Cannabinoid receptors; female homogenate
  reduction of HU-210 induced G-protein activation (CB2 receptor antagonism): 31.34 fmole/mg protein
Cannabinoid receptors; female homogenate, 2-AG 3 μM
  2-AG stimulated G-protein activation remaining on co-incubation with CB2 ligand: 5.96±0.97 fmole/mg protein
Cannabinoid receptors; [6]
  HU-210 stimulated G-protein activation remaining on co-incubation with CB2 ligand: 9.25±1.2 fmole/mg protein
Cannabinoid receptors; male homogenate
  reduction of HU-210 induced G-protein activation (CB2 receptor antagonism): 12.31 fmole/mg protein
Cannabinoid receptors; male homogenate, 2-AG 3 μM
  2-AG stimulated G-protein activation remaining on co-incubation with CB2 ligand: 18.14±2.1 fmole/mg protein
Cannabinoid receptors; [7]
  HU-210 stimulated G-protein activation remaining on co-incubation with CB2 ligand: 23.3 fmole/mg protein
[1]
  water solubility: very poor water solubility
  stable dissolution in tested vehicles: achieved only with olive oil
G93A-SOD1 mice [2]
  survival improvement versus vehicle, females: 25%
  survival improvement versus vehicle, males: did not live significantly longer
G93A-SOD1 mice [3]
  improvement in motor function versus vehicle, females: 92%
  interval between mean loss of motor function and death, females: 4 days
  improvement in motor function versus vehicle, males: 61%
  interval between mean loss of motor function and death, males: 10.7 days

## Cc1c(C(=O)c2cccc3ccccc23)c2cccc3c2n1C(CN1CCOCC1)CO3 (stereo not drawn) [WIN-55,212-2, [2,3-Dihydro-5-methyl-3-[(morpholinyl)methyl]pyrrolo-[1,2,3-de]-1,4-benzoxazin-yl]-(1-naphthalenyl)methanone]
[1]
  water solubility: very poor water solubility
  stable dissolution in tested vehicles: achieved only with olive oil
G93A-SOD1 mice [2]; 5 mg/kg daily i.p.
  increase in survival interval versus vehicle: 8.8 days
G93A-SOD1 mice [2]; 5 mg/kg daily i.p., vehicle 23.7+/−1.7 days
  survival interval (symptom onset to sacrifice): 32.5 ± 3.6 days

## (−)-cis-3-[2-Hydroxy-4-(1,1-dimethylheptyl)-phenyl]-trans-4-(3-hydroxypropyl)-cyclohexanol) [CP-55,940]
CB1 receptors
  Ki: ~0.5 nM

## N-[(1S)-endo-1,3,3-Trimethylbicyclo[2.2.1]heptan-2-yl]-5-(4-chloro-3-methylphenyl)-1-(4-ethoxybenzyl)-pyrazole-3-carboxamide [SR-144528]
CB1/CB2 receptors [4]; WT-OE membranes, antagonist 3 μM
  net reduction of HU-210-induced G-protein activation: 15.6 fmoles/mg protein
CB1/CB2 receptors [4]; [10]
  % blockade of HU-210-induced G-protein activation: approximately 50%
  HU-210 stimulated [35S]GTPγS binding remaining on co-incubation with antagonist: 15.1±1.1 fmole/mg protein
CB1/CB2 receptors [5]
  % blockade of HU-210-induced G-protein activation: 49%
  HU-210 stimulated [35S]GTPγS binding remaining on co-incubation with antagonist: 29.5±6.4 fmole/mg protein
  net reduction of HU-210-induced G-protein activation: 27.9 fmole/mg protein

Source: US20090124608A1, “CB2 Receptor Modulators In Neurodegenerative Diseases And Applications Of The Same” (priority 2006, published 2009)
